Laboratory results as given in patent publication US9187426B2, “Organic compounds” (Novartis AG, priority 2008, dated 2015).

Assays:
[1] = molecular target: T1, Stearoyl-CoA Desaturase (SCD1) (Mus musculus, UniProt P13516); experiment: SCD microsomal assay: release of 3H2O from [9,10-3H]stearoyl-CoA in mouse liver microsomes; format: biochemical; details: 15 min incubation, 25° C.
T1 construct: Reactions are started by adding 50 μL of microsomes (1.25 mg/mL); from tissue; host or cells: liver microsomes of male ICR outbred mice on a high-carbohydrate, low-fat diet
T1 sequence (P13516 1-355): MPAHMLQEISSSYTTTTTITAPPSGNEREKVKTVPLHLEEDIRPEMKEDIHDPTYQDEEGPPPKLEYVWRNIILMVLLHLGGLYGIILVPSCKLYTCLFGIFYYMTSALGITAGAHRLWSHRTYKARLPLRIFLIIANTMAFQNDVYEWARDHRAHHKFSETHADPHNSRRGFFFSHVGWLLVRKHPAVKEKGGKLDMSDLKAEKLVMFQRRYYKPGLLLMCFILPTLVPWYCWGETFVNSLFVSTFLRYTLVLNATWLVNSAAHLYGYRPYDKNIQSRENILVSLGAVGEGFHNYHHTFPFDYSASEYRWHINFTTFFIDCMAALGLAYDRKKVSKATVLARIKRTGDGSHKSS
Description: Measuring Stearoyl-CoA Desaturase Inhibition Activity of a Test Compound Using Mouse Liver Microsomes
The identification of compounds of the invention as SCD inhibitors was readily accomplished using the SCD microsomal assay procedure described in Shanklin J. and Summerville C., Proc. Natl. Acad. Sci. USA (1991), Vol. 88, pp. 2510-2514.
Male ICR outbread mice, on a high-carbohydrate, low fat diet, under light halothane (15% in mineral oil) anesthesia are sacrificed by exsanguination during periods of high enzyme activity. Livers are immediately rinsed with cold 0.9% NaCl solution, weighed and minced with scissors. All procedures are performed at 4° C. unless specified otherwise. Livers are homogenized in a solution (1/3 w/v) containing 0.25 M sucrose, 62 mM potassium phosphate buffer (pH 7.0), 0.15 M KCl, 15 mM N-acetyleysteine, 5 mM MgCl2, and 0.1 mM EDTA using 4 strokes of a Potter-Elvehjem tissue homogenizer. The homogenate is centrifuged at 10,400×g for 20 min to eliminate mitochondria and cellular debris. The supernatant is filtered through a 3-layer cheesecloth and centrifuged at 105,000×g for 60 min. The microsomal pellet is gently resuspended in the same homogenization solution with a small glass/teflon homogenizer and stored at −70° C. The absence of mitochondrial contamination is enzymatically assessed. The protein concentration is measured using bovine serum albumin as the standard.
Desaturase activity is measured as the release of ^3H2O from [9,10-^3H]stearoyl-CoA. Reactions per assay point conditions are as follows: 2 μL 1.5 mM stearoyl-CoA, 0.25 μL 1 mCi/mL ^3H stearoyl CoA, 10 μL 20 mM NADH, 36.75 μL 0.1 M PK buffer (K2HPO4/NaH2PO4, pH 7.2). The test compound or control solution is added in a 1 μL volume. Reactions are started by adding 50 μL of microsomes (1.25 mg/mL). The plates are mixed and after 15 min incubation on a heating block (25° C.), the reactions are stopped by the addition of 10 μL 60% PCA. An aliquot of 100 μL is then transferred to a filter plate pretreated with charcoal and the plate centrifuged at 4000 rpm for 1 minute. The flow through containing the ^3H2O released by the SCD1 desaturation reaction is added to scintillation fluid and the radioactivity measured in a Packard TopCount. The data is analysed to identify the IC50 for test compounds and reference compounds.

Row | IC50 [1] [nM] | melting point [°C] | Structure (SMILES)
1 | 1100 | 195 to 198 | NC(=O)c1ccnc(N2CCN(Cc3ccc(F)c(F)c3)C2=O)c1 [Example 26.30, 2-(3-(3,4-Difluorobenzyl)-2-oxoimidazolidin-1-yl)isonicotinamide]
2 | 410 | 185 to 187 | O=C(NCc1ccccc1)c1ccnc(NC(=O)c2cc(F)cc(F)c2)c1 [Example 6.8, N-benzyl-2-(3,5-difluorobenzamido)isonicotinamide]
3 | 10 | 139 to 141 | O=C(NCc1nccs1)c1ccnc(N2CCN(Cc3ccc(C(F)(F)F)cc3)C2=O)c1 [Example 23, 2-(2-Oxo-3-(4-(trifluoromethyl)benzyl)imidazolidin-1-yl)-N-(thiazol-2-ylmethyl)isonicotinamide]
4 | 1200 | 175 to 176 | NC(=O)c1ccnc(N2CCN(Cc3ccc(OC(F)(F)F)cc3)C2=O)c1 [Example 26.32, 2-(2-Oxo-3-(4-(trifluoromethoxy)-benzyl)imidazolidin-1-yl)isonicotinamide]
5 | 10 | 153 to 155 | Cc1cc(CNC(=O)c2ccnc(N3CCN(Cc4ccc(C(F)(F)F)cc4)C3=O)c2)no1 [Example 26.18, N-((5-Methylisoxazol-3-yl)methyl)-2-(2-oxo-3-(4-(trifluoromethyl)-benzyl)imidazolidin-1-yl)isonicotinamide]
6 | 10 | 161 to 163 | O=C(NCc1ccccn1)c1ccnc(N2CCN(Cc3ccc(C(F)(F)F)cc3)C2=O)c1 [Example 26.12, 2-(2-Oxo-3-(4-(trifluoromethyl)benzyl)imidazolidin-1-yl)-N-(pyridin-2-ylmethyl)-isonicotinamide]
7 | 180 | 167 to 169 | NC(=O)c1ccnc(N2CCN(Cc3ccc(C(F)(F)F)cc3)C2=O)c1 [Example 26.31, 2-(2-Oxo-3-(4-(Trifluoromethyl)-benzyl)imidazolidin-1-yl)isonicotinamide]
8 | 170 | 110 to 112 | O=C(Nc1cc(-c2nc(Cc3ccccc3)c[nH]2)ccn1)c1ccccc1 [Example 10.2, N-(4-(4-benzyl-1H-imidazol-2-yl)pyridin-2-yl)benzamide]
9 | 80 | 169 to 171 | Cc1cnc(CNC(=O)c2ccnc(N3CCN(Cc4ccc(F)cc4)C3=O)c2)cn1 [Example 14.2, 2-(3-(4-fluorobenzyl)-2-oxoimidazolidin-1-yl)-N-((5-methylpyrazin-2-yl)methyl)isonicotinamide]
10 | 20 | 99 to 101 | O=C(NCc1ccccn1)c1ccnc(N2CCN(Cc3ccc(F)c(F)c3)C2=O)c1 [Example 25, 2-(3-(3,4-Difluorobenzyl)-2-oxoimidazolidin-1-yl)-N-(pyridin-2-ylmethyl)-isonicotinamide]
11 | 130 | 95 to 96 | COc1cccc(C(=O)Nc2cc(C(=O)NCc3ccccc3)ccn2)c1 [Example 6.4, N-benzyl-2-(3-methoxybenzamido)isonicotinamide]
12 | 260 | 153 to 155 | Cc1cc(CNC(=O)c2ccnc(N3CCN(Cc4ccc(F)cc4)C3=O)c2)no1 [Example 14.10, 2-(3-(4-fluorobenzyl)-2-oxoimidazolidin-1-yl)-N-((5-methylisoxazol-3-yl)methyl)isonicotinamide]
13 | 50 | 123 to 125 | O=C(NCc1ccccn1)c1ccnc(N2CCN(Cc3ccc(OC(F)(F)F)cc3)C2=O)c1 [Example 26.15, 2-(2-Oxo-3-(4-(trifluoromethoxy)benzyl)imidazolidin-1-yl)-N-(pyridin-2-ylmethyl)-isonicotinamide]
14 | 10 | 153 to 155 | Cc1cc(CNC(=O)c2ccnc(N3CCN(Cc4ccc(F)c(F)c4)C3=O)c2)no1 [Example 26.23, 2-(3-(3,4-Difluorobenzyl)-2-oxoimidazolidin-1-yl)-N-((5-methylisoxazol-3-yl)methyl)-isonicotinamide]
15 | 190 | 174 to 176 | Cn1cnc(CNC(=O)c2ccnc(N3CCN(Cc4ccc(F)cc4)C3=O)c2)c1 [Example 14.5, 2-(3-(4-fluorobenzyl)-2-oxoimidazolidin-1-yl)-N-((1-methyl-1H-imidazol-4-yl)methyl)isonicotinamide]
16 | 20 | 173 to 175 | O=C(NCc1ccc(F)cc1)c1ccnc(N2CCN(Cc3ccc(F)cc3)C2=O)c1 [Example 15.4, N-(4-fluorobenzyl)-2-(3-(4-fluorobenzyl)-2-oxoimidazolidin-1-yl)isonicotinamide]
17 | 200 | 197 to 199 | O=C(NCc1cocn1)c1ccnc(N2CCN(Cc3ccc(F)cc3)C2=O)c1 [Example 14, 2-(3-(4-fluorobenzyl)-2-oxoimidazolidin-1-yl)-N-(oxazol-4-ylmethyl)isonicotinamide]
